Measured values as given in US7582786B2, “Synthetic catalytic free radical scavengers useful as antioxidants for prevention and therapy of disease” (Eukarion Inc., priority 1996, dated 2009).

Assays:
[1] = SOD activity, xanthine/xanthine oxidase with cytochrome C as acceptor (Example 2); assay type: biochemical; settings: for SOD: relative to C7 (C7 = 100)
Outline: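 Superoxide was generated by 120 µM xanthine and 0.2 U/ml xanthine oxidase in 50 mM sodium phosphate pH 7.8 at 27 °C, with salen manganese compounds at ≥4 concentrations in duplicate.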

[2] = test system: brain homogenates; test: Iron-induced lipid peroxidation in brain homogenates (MDA); assay type: biochemical, rat
Description: Lipid peroxidation was induced by incubating a mixture consisting of 0.25 ml homogenate, 0.25 ml ASCF with test compounds, and 10 μM FeCl2 for 1 hr at 35° C. under an atmosphere equilibrated with O2:CO2(95:5). Following the incubation, 0.1 ml of the sample was extracted with trichloroacetic acid and analyzed for thiobarbituric acid reactive material as described previously, using authentic malonyldialdehyde (MDA) as a standard.

[3] = test system: Human dermal fibroblasts (HF cells); test: Cell protection assay, tert-butylhydroperoxide (t-BHP) toxicity, XTT; assay type: cell-based
Description: (§1) Human dermal fibroblasts (HF cells) were obtained from the American type tissue Culture Collection at passage 1 and cultured and propagated in a medium (HF medium) consisting of Dulbecco's Modified Eagle's Medium with 4.5 g/l D-glucose, 10% calf serum 4 mM glutamine, 50 units/ml penicillin, and 50 μg/ml streptomycin in a 37° C. humidified incubator equilibrated with 5% CO2. Cells were used at passages 5 or 6 for experiments. For cell protection assays, HF cells were seeded at a density of about 15,000 cells per cm2 onto 96-well culture plates and allowed to grow to confluence. To assess protection tert-butylhydroperoxide (t-BHP) toxicity, confluent cell layers were first treated with the indicated concentrations of test compounds dissolved in HF medium for 18 hr. The medium was then replaced with fresh medium containing test compounds and 0.5 mM tert-butylhydroperoxide (t-BHP) and cells were incubated for another 18 hr. The medium was then removed and replaced with fresh HF medium (100 μl per well) without test compounds or t-BHP. Fifty μl of XTT reagent (Boeringer Mannheim, Inc.), prepared as described by the manufacturer, was then added to each well and the plates returned to the incubator. After 2 hr., the absorbance at 490 nm was measured in a BioRad (Richmond, Calif.) Model 3550 plate-reader, using a reference wavelength of 655 nm. Control cells that had not been exposed to test compounds or toxic agents were included among the samples treated with XTT reagent. Absorbance measurements for blank wells, containing HF medium and XTT reagent but no cells, were also determined. To analyze protection from glucose/glucose oxidase toxicity, confluent cell layers were incubated with HF medium containing glucose oxidase (0.019 units/ml) along with test compounds, as indicated, for 18 hr in the tissue culture incubator. Fresh HF medium was then added and cell viability assessed using the XTT reagent as described above. For both these models, concentrations of toxic agents were selected that were reproducibly completely lethal. Cytotoxicity assessments were routinely confirmed by visual inspection of the cell layers prior to addition of the XTT reagent.

[4] = test system: Human dermal fibroblasts (HF cells); test: Cell protection assay, glucose/glucose oxidase toxicity, XTT; assay type: cell-based; settings: for protection against glucose and glucose oxidase: glucose oxidase 0.019 units/ml
Description: as §1
Catalase and peroxidase activities were assayed as described in Example 2. Catalase assays contained 10 μM salen-manganese complex and 10 mM hydrogen peroxide. Peroxidase assays contained 10 μM salen-manganese complex and 0.2 mM hydrogen peroxide. Glucose-glucose oxidase toxicity assays were performed using human dermal fibroblasts as described in Example 2.

SMILES | SOD activity (in words) [1] | SOD [1] | MDA levels, percent of control ([2]; 1 μM) | MDA levels, percent of control ([2]; 5 μM) | MDA levels, percent of control ([2]; 10 μM) | MDA levels, percent of control ([2]; 25 μM) | Cell viability, absorbance at 490 nm uncorrected for blank ([3]; 2.5 μM, t-BHP 0.5 mM) | Cell viability, absorbance at 490 nm uncorrected for blank ([3]; 5 μM, t-BHP 0.5 mM) | Cell viability, absorbance at 490 nm uncorrected for blank ([3]; 10 μM, t-BHP 0.5 mM) | Cell viability, absorbance at 490 nm uncorrected for blank ([3]; 20 μM, t-BHP 0.5 mM) | Cell viability, absorbance at 490 nm uncorrected for blank ([3]; 40 μM, t-BHP 0.5 mM) | synergistic toxicity with t-BHP ([3]; 80 μM) | Cell viability, absorbance at 490 nm uncorrected for blank ([3]; 80 μM, t-BHP 0.5 mM) | protection against glucose and glucose oxidase (in words) [4] | protection against glucose and glucose oxidase ([4]; 40 μM) | protection against glucose and glucose oxidase ([4]; 80 μM) | inhibition of lipid peroxidation (in words) [2] | toxicity of compound alone ([3]; 80 μM, without t-BHP) | concentration at which protection was observed ([3]; t-BHP 0.5 mM)
[Cl][Mn]1[O]c2ccccc2C=NCCN=Cc2ccccc2[O]1 [Compound C7] | catalytic SOD activity | 100 | 110% | 84% | 22% | 4% | 0.28 ± 0.01 | 0.68 ± 0.31 | 1.45 ± 0.05 | 1.44 ± 0.05 | 1.42 ± 0.03 | possible synergistic toxicity | 0.77 ± 0.41 | – | – | – | – | – | –
COc1cccc2c1[O][Mn]([O]C(C)=O)[O]c1c(cccc1OC)C=NCCN=C2 [Compound C32] | – | 96 | 104% | 35% | 13% | 8% | 0.29 ± 0.01 | 0.28 ± 0.01 | 1.35 ± 0.05 | 1.43 ± 0.05 | 1.48 ± 0.06 | – | 1.40 ± 0.07 | more protective than C43 | significant protection | complete protection | – | – | –
COc1cc(OC)c2c(c1)[O][Mn]([O]C(C)=O)[O]c1cc(OC)cc(OC)c1C=NCCN=C2 [Compound C35] | – | 27 | 82% | 5% | 4% | 3% | 0.27 ± 0.01 | 0.27 ± 0.01 | 0.29 ± 0.03 | 1.40 ± 0.05 | 1.52 ± 0.07 | – | 0.57 ± 0.01 | not cytoprotective | – | – | very potent | equivalent toxicity with or without t-BHP | ≥ 20 µM
COc1cccc2c1[O][Mn]([Cl])[O]c1c(cccc1OC)C=NCCN=C2 [Compound C40] | – | 96 | – | – | – | – | – | – | – | – | – | – | – | – | significant protection | complete protection | – | – | –
